US12168003B2, “Selective inhibition of T follicular helper cells for treatment of autoimmune disorders” (priority 2019, dated 2024)

System: eIF4E
Assay: Silencing of eIF4E in OT2 T cells by lentivirus shRNA, adoptive transfer and OVA/Alum
Type: in vivo, mouse
Method: HEK 293T cells were transfected with pTRIPZ plasmid expressing NS shRNA ([…] (SEQ ID NO: 5)) or eIF4E shRNA ([…] (SEQ ID NO: 6)) along with psPAX2 and pMD2.G in Lipofectamine™ 2000 and Opti-MEM®. Supernatant was collected 48 hours later and centrifuged at 3000×g for 15 minutes at room temperature. Cell debris pellet was discarded and supernatant was incubated with PEG-it™ (System Biosciences) at 4° C. for 24 to 48 hours and then centrifuged for 1500×g for 30 minutes at 4° C. Supernatant was discarded and viral pellet was resuspended in cold PBS and frozen at −80° C. until use.
CD4^+ T cells were isolated (EasySep™ CD4^+ T cell isolation; StemCell) from OT2 mice (>95% Vβ5.1/5.2) using negative selection. OT2 T cells were activated in mouse T cell media (RPMI containing 10% FBS, 55 μM 2-ME, 25 mM HEPES, 100 uM Sodium pyruvate, 2 mM Glutamax, non-essential amino acids, 100 U/mL penicillin, and 100 μg/mL streptomycin) and soluble 1 μg/mL anti-CD28 with 50 U/mL IL-2 on plates coated with 10 μg/mL anti-CD3 for 3 days. Following activation, cells were spin-transfected at 3×10^6 cells in 1 mL in 6-well plates with lentivirus and 4 μg/mL dextran (Sigma D9885) at 2,000×g for 60 minutes at 30° C. with no acceleration or break (Kurachi et al., “Optimized Retroviral Transduction of Mouse T Cells for in Vivo Assessment of Gene Function,” Nat. Protoc. 12(9):1980-1998 (2017), which is hereby incorporated by reference in its entirety). Following spinoculation, cells were centrifuged and supernatant was decanted and replaced with fresh media. The next day (day 5) 2 μg/mL puromycin (Gibco) and PMA/ionomycin (BioLegend®) are added to the T cells and incubated for 3 days. On day 8, media was replaced and cells were incubated with PMA/ionomycin again for another 3 days. On day 10, it was confirmed that control cells not transfected with virus were >98% dead and 1.5×10^6 OT2 NS or OT2 eIF4Esh were transferred i.p. to CD45.1 mice. One day following adoptive transfer, mice were placed on doxycycline diet (200 mg/kg) and remained on this diet for the entire study. […]

GCGTCAAGCAATCGAGATTTG (SEQ ID NO: 6) (expressed or natural sequence) [eIF4E shRNA, doxycycline-inducible eIF4E shRNA expressed from pTRIPZ lentivirus in OT2 T cells]
eIF4E silencing in spleen and blood transduced OT2 T cells (lower eIF4E level) (Dox-inducible shRNA, seven days following Dox addition, vs NS shRNA): 3 fold | fewer TFH cells formed by OT2 T cells (day 15 post-transfer, OVA/Alum, vs control NS OT2 cells): 3 fold | level of OT2 T cells in the spleen (day 15 post-transfer, vs NS OT2 cells): no impact
